From patent US7612045B2, “Compounds, compositions and methods for controlling biofilms and bacterial infections” (Sequoia Sciences, Inc., priority 2005, dated 2009)
Where two headings read alike, the source gives them in different places.

Assays:
[1] = system: methicillin-resistant Staphylococcus aureus; conditions: cited from earlier work
bacterial growth = assay: Bacterial growth inhibition studies; type: cell-based
Pseudomonas aeruginosa = assay: Microtiter plate biofilm formation assay (crystal violet), Pseudomonas aeruginosa; type: cell-based; conditions: read-out: % Biofilm Inhibition of Pseudomonas Aeruginosa
Experimental: In this example, a concentrated solution of each compound tested was loaded separately into three separate wells of a polystyrene microtiter plate. In addition, each assay included triplicate wells correlating to negative and positive controls. […] Next, 150 μl of sterile media was added to each well (LB media with 0.2% glucose)—followed by 50 μl of the appropriate bacterial inoculum. Thus, each well contained a final volume of approximately 200 μl (not including the volume of the concentrated inhibitor). The final concentration of each biofilm inhibitor tested in the assay was 10 μg/ml. The microtiter plates were then placed on a shaker for approximately 20 to 24 hours at room temperature. After the incubation period, the microtiter plate was removed from the shaker, rinsed, and stained. During the rinsing step, the test compound, media, and bacterial inoculum solution was drained from the plate, approximately 300 μL of 0.1M phosphate buffered saline (PBS) was added to each well, which was subsequently drained from the plate. The rinsing step removed any suspended cells from the assay. An 0.1% crystal violet stain was added to each well for approximately 20 minutes. Next, the crystal violet solution was drained from the microtiter plate. The plate was rinsed with PBS as described above four (4) times to remove any excess stain from the plate. Following the PBS rinsing steps, the plate was eluted with 250 μL/well of ethanol, which improved the detection of the stain. The plate was immediately analyzed spectrophotometrically at 540 nm using a microtiter plate reader.
The average O.D. for each test compound was compared to the average O.D. of the negative control (the positive control was employed to verify proper assay function).

[2] = system: E. coli clinical strain UTI89; assay: Biofilm formation of E. coli clinical strain UTI89 in 96 well plates (crystal violet); type: cell-based; conditions: Escherichia coli, 24 h, one day, read-out: inhibition of biofilm formation of the UTI89 strain as compared to the controls; for inhibition at 32 µg/mL: 32 ug/ml; for inhibition at 8 µg/mL: 8 ug/ml; for inhibition at 16 µg/mL: 16 ug/ml
Experimental: Biofilm inhibition experiments were conducted using an assay adapted from the reported protocol described in Pratt and Kolter, 1998, Molecular Microbiology, 30: 285-293; Li et al., 2001, J. Bacteriol., 183: 897-908. E. coli clinical strain UTI89 was grown in LB in 96 well plates at room temperature for one day without shaking. To quantify the biofilm mass, the suspension culture was poured out and the biofilm was washed three times with water. The biofilm was stained with 0.1% crystal violet for 20 minutes. The plates were then washed three times with water. Then 95% ethanol was added to dissolve the dye at the bottom and on the wall and the OD reading at 540 nm was measured to quantify the total biofilm mass. Test compounds were added with the inoculation and biofilm mass was measured after one day as described above appropriate amounts of 100% ethanol were added to each sample to eliminate the effect of solvent. Each condition had 4 to 8 replicates on each plate and was performed over multiple days.

Escherichia coli = assay: Microtiter plate biofilm formation assay (crystal violet), Escherichia coli; type: cell-based; conditions: read-out: % Biofilm Inhibition of E. coli
S. aureus = conditions: data of the '911 patent; cited from earlier work
P. aeruginosa = conditions: data of the '911 patent; cited from earlier work
S. mutans = conditions: data of the '911 patent; cited from earlier work
S. salivaris = conditions: data of the '911 patent; cited from earlier work
E. coli = conditions: data of the '911 patent; cited from earlier work
[3] = 10 μg/ml, 20 to 24 hours at room temperature, O.D. 540 nm vs negative control
[4] = 10 μg/ml, same microtiter assay

CO[C@H]1/C=C/O[C@@]2(C)Oc3c(C)c(O)c4c(O)c(c(/C=N/N5CCN(C)CC5)c(O)c4c3C2=O)NC(=O)/C(C)=C\C=C\[C@H](C)[C@H](O)[C@@H](C)[C@@H](O)[C@@H](C)[C@H](OC(C)=O)[C@@H]1C [rifampin]
Eradication of MRSA in a biofilm ([1]; biofilm, urinary catheters): unable to eradicate
Activity against MRSA planktonic, or suspended cells ([1]; planktonic cells): effective

C[C@H]1[C@H](C)CC[C@]2(C(=O)O)CC[C@]3(C)C(=CC[C@@H]4[C@@]5(C)C[C@@H](O)[C@H](O)[C@@](C)(CO)[C@@H]5[C@H](O)C[C@]43C)[C@H]12 [Compound 314, Madecassic Acid]
direct anti-bacterial activity (bacterial growth): do not display direct anti-bacterial activity

C[C@@H]1[C@H]2C3=CC[C@@H]4[C@@]5(C)CC[C@H](OC(=O)/C=C\c6ccc(O)cc6)C(C)(C)[C@@H]5CC[C@@]4(C)[C@]3(C)CC[C@@]2(C(=O)O)CC[C@]1(C)O (relative stereo) [Compound 188, 3-[4-Hydroxycinnamoyl(cis-)], 20-hydroxy-ursolic acid]
inhibition at 10 µg/mL (Pseudomonas aeruginosa; [3]): 62%

C[C@H]1[C@H](C)CC[C@]2(C(=O)O)CC[C@]3(C)C(=CCC4[C@@]5(C)C[C@@H](O)[C@H](OC(=O)/C=C/c6ccc(O)cc6)C(C)(C)C5CC[C@]43C)[C@H]12 (stereo partly drawn) [Compound 189, 3-[4-hydroxycinnamoyl(trans-)]-2-hydroxyursolic acid]
inhibition at 10 µg/mL (Pseudomonas aeruginosa; [3]): 35%

C[C@@H]1CC[C@]2(C(=O)O)CCC3(C)C(=CCC4C5(C)C[C@@H](O)[C@H](O)C(C)(C)C5CCC43C)C2[C@H]1C (stereo partly drawn) [Compound 108, 2α,3β-dihydroxy-12-ursen-28-oic acid]
inhibition at 20 µg/mL ([2]; 20 ug/ml): ~85%
inhibition at 10 µg/mL (Pseudomonas aeruginosa; [3]): 52%
inhibition at 10 µg/mL (Escherichia coli; [4]): 74%

CO[C@H]1C[C@@]2(C)C(CC[C@]3(C)C2CC=C2C4[C@@H](C)[C@H](C)CC[C@]4(C(=O)O)CC[C@]23C)C(C)(C)[C@@H]1OC(=O)/C=C/c1ccccc1 (stereo partly drawn) [2β-methoxy-3α-cinnamoyl-12-ursen-28-oic acid]
inhibition at 32 µg/mL [2]: ~40%

CC1(C)CC[C@]2(C(=O)O)[C@H](O)C[C@]3(C)C(=CC[C@@H]4[C@@]5(C)CC[C@H](O)C(C)(C)[C@@H]5CC[C@]43C)[C@@H]2C1 [Compound 455, 3β,16α-dihydroxyolean-12-en-28-oic acid]
inhibition at 8 µg/mL [2]: ~27%
inhibition at 16 µg/mL [2]: ~50%
inhibition at 32 µg/mL [2]: ~80%

CC1(C)CC[C@]2(C(=O)O)CCC3(C)C(=CCC4C5(C)C[C@@H](O)[C@H](O)C(C)(C)C5CCC43C)[C@@H]2C1 (some centres unmarked) [Compound 107, 2-hydroxyoleanic acid]
inhibition at 10 µg/mL (Pseudomonas aeruginosa): 46%

C[C@@H]1CCC2(C(=O)O)CC[C@]3(C)C(=CCC4[C@@]5(C)C[C@@H](O)[C@H](O)[C@@](C)(CO)C5CC[C@]43C)C2[C@H]1C (some centres unmarked) [Compound 255, Asiatic Acid]
inhibition at 10 µg/mL (Escherichia coli; [4]): 75%
direct anti-bacterial activity (bacterial growth): do not display direct anti-bacterial activity

C[C@@H]1CC[C@]2(C(=O)O)CC[C@]3(C)C(=CCC4[C@]5(C)C(CC[C@]43C)[C@@](C)(CO)[C@H](O)[C@H](O)[C@H]5O)C2[C@H]1C (stereo partly drawn) [Compound 458, 1β,2α,3α,24-tetrahydroxy-12-ursen-28-oic acid]
inhibition at 32 µg/mL [2]: ~45%

CC1CCC2(C(=O)O)CCC3(C)C(=CCC4C5(C)CC(O)C(O)C(C)(C)C5CCC43C)C2C1(C)O (centres unmarked) [Compound 192, Euscaphic Acid]
inhibition at 10 µg/mL (Pseudomonas aeruginosa; [3]): 32%

C[C@@H]1CC[C@]2(C(=O)O)CC[C@]3(C)C(=CCC4[C@@]5(C)C[C@@H](O)[C@H](O)C(C)(C)C5CC[C@]43C)[C@@H]2[C@]1(C)O (some centres unmarked) [Compound 203, Tormentic Acid]
inhibition at 10 µg/mL (Pseudomonas aeruginosa; [3]): 43%

CC1(C)CC[C@@]2(C(=O)O)C(O)C[C@]3(C)C(=CCC4[C@@]5(C)CC[C@H](O)[C@@](C)(CO)C5CC[C@]43C)C2C1 (some centres unmarked) [Compound 323, Caulophyllogenin]
inhibition at 10 µg/mL (Escherichia coli; [4]): 35%

CC1(C)CC[C@]2(C(=O)O)CC[C@]3(C)C(=CC[C@@H]4[C@@]5(C)CC[C@H](O)C(C)(C)[C@@H]5CC[C@]43C)[C@@H]2C1 [Compound 225, Oleanolic Acid]
Growth inhibition of S. aureus (S. aureus): failed to inhibit
inhibition at 10 µg/mL (Pseudomonas aeruginosa; [3]): 35%
Growth inhibition of P. aeruginosa (P. aeruginosa): failed to inhibit
Growth inhibition of S. mutans (S. mutans): incomplete inhibition
inhibition at 10 µg/mL (Escherichia coli; [4]): 35%
Growth inhibition of S. salivaris (S. salivaris): incomplete inhibition
Growth inhibition of E. coli (E. coli): failed to inhibit

C[C@H]1[C@H](CO)CC[C@]2(C(=O)O)CC[C@]3(C)C(=CCC4[C@@]5(C)CC[C@H](O)C(C)(C)C5CC[C@]43C)[C@H]12 (some centres unmarked) [Compound 99, 30-hydroxyursolic acid]
inhibition at 10 µg/mL (Pseudomonas aeruginosa; [3]): 30%

CO[C@H]1C[C@@]2(C)C(CC[C@]3(C)C2CC=C2C4[C@@H](C)[C@H](C)CCC4(C(=O)O)CC[C@]23C)C(C)(C)[C@@H]1O (stereo partly drawn) [Compound 410, 2β-methoxy-3α-hydroxy-12-ursen-28-oic acid]
inhibition at 32 µg/mL [2]: ~38%

C[C@@H]1CC[C@]2(C(=O)O)CC[C@]3(C)C(=CCC4[C@@]5(C)C[C@@H](O)[C@@H](O)[C@](C)(CO)C5CC[C@]43C)C2[C@H]1C (stereo partly drawn) [Compound 457, 2α,3α,24-trihydroxy-12-ursen-28-oic acid]
inhibition at 8 µg/mL [2]: ~50%
inhibition at 16 µg/mL [2]: ~53%
inhibition at 32 µg/mL [2]: ~80%

C[C@H]1[C@H](C)CC[C@]2(C(=O)O)CC[C@]3(C)C(=CC[C@@H]4[C@@]5(C)CC[C@H](O)C(C)(C)[C@@H]5CC[C@]43C)[C@H]12 [Compound 110, Ursolic Acid]
Growth inhibition of S. aureus (S. aureus): failed to inhibit
Growth inhibition of P. aeruginosa (P. aeruginosa): failed to inhibit
Growth inhibition of S. mutans (S. mutans): completely inhibited
inhibition at 10 µg/mL (Escherichia coli; [4]): 80%
Growth inhibition of S. salivaris (S. salivaris): completely inhibited
Growth inhibition of E. coli (E. coli): failed to inhibit

C[C@@H]1[C@H]2C3=CCC4[C@@]5(C)CC[C@H](O)C(C)(C)C5CC[C@@]4(C)[C@]3(C)CC[C@@]2(C(=O)O)CC[C@]1(C)O (some centres unmarked) [Compound 195, 20B-hydroxyursolic acid]
inhibition at 10 µg/mL (Pseudomonas aeruginosa; [3]): 25%

C[C@@H]1CC[C@]2(C(=O)O)CCC3(C)C(=CCC4C5(C)C[C@H](O)[C@@H](O)C(C)(C)C5CCC43C)C2[C@H]1C (stereo partly drawn) [Compound 431, 2β,3α-dihydroxy-12-ursen-28-oic acid]
inhibition at 32 µg/mL [2]: ~62%

C=C1CCC2(C(=O)O)CCC3(C)C(=CCC4C5(C)CCC(O)C(C)(C)C5CCC43C)C2C1C (centres unmarked) [Compound 430, 3-hydroxy-12,20(30) ursadien-28-oic acid]
inhibition at 10 µg/mL (Escherichia coli): 60%

C[C@@H]1CC[C@]2(C(=O)O)CC[C@]3(C)C(=CCC4[C@@]5(C)CC[C@H](OC(=O)OC(C)(C)C)C(C)(C)C5CC[C@]43C)C2[C@H]1C (stereo partly drawn) [3β-O-tert-butyloxycarbonyl-ursolic acid]
inhibition at 32 µg/mL [2]: ~46%
